Values joined by “and” are separate entries in the source; they are usually repeats but may differ in a detail not shown here. Equal values may be shown once.
What was measured:
non-constipation IBS = experiment: Study 2 (TARGET 2): rifaximin 550 mg TID 14 days vs placebo in non-C IBS, 10-week follow-up; assay type: in vivo, human; details: for Adequate relief of IBS symptom of bloating (weekly SGA), Failure / Adequate relief of IBS symptom of bloating (weekly SGA), Success / Adequate relief of IBS symptoms (weekly SGA), Failure / Adequate relief of IBS symptoms (weekly SGA), Success: Weeks 3-6
Method: The primary efficacy endpoint of the study was the proportion of subjects who achieved adequate relief of IBS symptoms for at least 2 weeks during the first 4 weeks of the 10-week follow-up phase.
Two measures of efficacy were assessed.
Subjects were questioned on the relief of overall IBS symptoms and bloating. […] The analyses defined success as a “yes” response to questions regarding adequate relief. […]
All subpopulations in the study responded to therapy. Baseline severity was determined during screening for Abdominal Pain/Discomfort and Bloating, and the number, type (normal, hard, loose) and urgency of bowel movements. Duration of effect was assessed in a ten week follow-up period. […]
In TARGET 1 and 2, the primary endpoint was the proportion of patients who achieved adequate relief of IBS symptoms for at least 2 of 4 weeks during the month following 14 days of treatment. Adequate relief was defined as a response of “yes” to the following weekly Subject Global Assessment (SGA) question: “In regards to your IBS symptoms, compared to the way you felt before you started study medication, have you, in the past 7 days, had adequate relief of your IBS symptoms? [Yes/No]”
The key secondary endpoint was the proportion of patients who achieved adequate relief of IBS-related bloating for at least 2 of 4 weeks during the month following 2 weeks of treatment. Adequate relief of IBS-related bloating was defined as a response of “yes” to the following weekly (every 7 days) SGA question: “In regards to your IBS symptom of bloating, compared to the way you felt before you started study medication, have you, in the past 7 days, had adequate relief of your IBS symptom of bloating? […]

cytochrome P450 2C19 = cytochrome P450 2C19 (Homo sapiens, UniProt P33261); experiment: In vitro cytochrome P450 inhibition; assay type: biochemical; details: 2 to 200 ng/mL
Sequence of cytochrome P450 2C19 (P33261 whole entry): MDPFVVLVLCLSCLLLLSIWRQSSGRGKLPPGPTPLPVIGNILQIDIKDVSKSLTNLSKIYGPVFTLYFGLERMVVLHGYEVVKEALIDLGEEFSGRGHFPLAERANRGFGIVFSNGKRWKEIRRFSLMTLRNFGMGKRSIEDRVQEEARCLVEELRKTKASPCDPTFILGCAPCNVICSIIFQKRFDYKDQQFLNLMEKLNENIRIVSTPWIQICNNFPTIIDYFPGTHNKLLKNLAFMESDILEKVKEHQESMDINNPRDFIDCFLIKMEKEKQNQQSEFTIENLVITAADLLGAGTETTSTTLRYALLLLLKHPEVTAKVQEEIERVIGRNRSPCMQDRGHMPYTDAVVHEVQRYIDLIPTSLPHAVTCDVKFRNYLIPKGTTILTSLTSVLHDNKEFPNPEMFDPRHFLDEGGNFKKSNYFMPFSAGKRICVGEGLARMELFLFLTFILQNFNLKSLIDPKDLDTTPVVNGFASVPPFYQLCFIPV

[1] = Gender: Male (N = 85), 550 mg TID
[2] = IBS Subtype: Alternating-predominant, 550 mg TID
[3] = IBS Subtype: Diarrhoea-predominant, 550 mg TID
[4] = Race: Non-White (N = 31), 550 mg TID
[5] = Race: White (N = 280), 550 mg TID
[6] = Study 2, at least 2 weeks during PEP
[7] = TARGET 2, month following two weeks of treatment, 550 mg TID, N = 315

**Q.** What does the source list for CO[C@H]1/C=C/O[C@@]2(C)Oc3c(C)c(O)c4c(O)c(c5c(nc6cc(C)ccn65)c4c3C2=O)NC(=O)/C(C)=C\C=C\[C@H](C)[C@H](O)[C@@H](C)[C@@H](O)[C@@H](C)[C@H](OC(C)=O)[C@@H]1C [Rifaximin, (2S,16Z,18E,20S,21S,22R,23R,24R,25S,26S,27S,28E)-5,6,21,23,25 Pentahydroxy-27-methoxy-2,4,11,16,20,22,24,26-octamethyl-2,7-(epoxypentadeca-(1,11,13)trienimino) benzofuro (4,5-e) pyrido(1,2-a) benzimidazole-1,15(2H)-dione,25-acetate]?
**A.** Adequate relief of IBS symptom of bloating (weekly SGA), Failure (non-constipation IBS; [1]): 59 (69.4%) N (%); Adequate relief of IBS symptom of bloating (weekly SGA), Success (non-constipation IBS; [1]): 26 (30.6%) N (%); Adequate relief of IBS symptoms (weekly SGA), Failure (non-constipation IBS; [1]): 57 (67.1%) N (%); Adequate relief of IBS symptoms (weekly SGA), Success (non-constipation IBS; [1]): 28 (32.9%) N (%); Adequate relief of IBS symptom of bloating (weekly SGA), Failure (non-constipation IBS; [2]): 19 (55.9%) N (%); Adequate relief of IBS symptom of bloating (weekly SGA), Success (non-constipation IBS; [2]): 15 (44.1%) N (%); Adequate relief of IBS symptoms (weekly SGA), Failure (non-constipation IBS; [2]): 21 (61.8%) N (%); Adequate relief of IBS symptoms (weekly SGA), Success (non-constipation IBS; [2]): 13 (38.2%) N (%); Adequate relief of IBS symptom of bloating (weekly SGA), Failure (non-constipation IBS; [3]): 168 (60.6%) N (%); Adequate relief of IBS symptom of bloating (weekly SGA), Success (non-constipation IBS; [3]): 109 (39.4%) N (%); Adequate relief of IBS symptoms (weekly SGA), Failure (non-constipation IBS; [3]): 166 (59.9%) N (%); Adequate relief of IBS symptoms (weekly SGA), Success (non-constipation IBS; [3]): 111 (40.1%) N (%); Adequate relief of IBS symptom of bloating (weekly SGA), Failure (non-constipation IBS; [4]): 17 (54.8%) N(%); Adequate relief of IBS symptom of bloating (weekly SGA), Success (non-constipation IBS; [4]): 14 (45.2%) N(%); Adequate relief of IBS symptoms (weekly SGA), Failure (non-constipation IBS; [4]): 16 (51.6%) N(%); Adequate relief of IBS symptoms (weekly SGA), Success (non-constipation IBS; [4]): 15 (48.4%) N(%); Adequate relief of IBS symptom of bloating (weekly SGA), Failure (non-constipation IBS; [5]): 170 (60.7%) N (%); Adequate relief of IBS symptom of bloating (weekly SGA), Success (non-constipation IBS; [5]): 110 (39.3%) N (%); Adequate relief of IBS symptoms (weekly SGA), Failure (non-constipation IBS; [5]): 171 (61.1%) N (%); Adequate relief of IBS symptoms (weekly SGA), Success (non-constipation IBS; [5]): 109 (38.9%) N (%); IBS symptom of bloating: adequate relief at least 2 out of 4 weeks during weeks 3 through 6 (weekly question) (non-constipation IBS; Study 2 / TARGET 2): 41%; Global IBS symptoms: adequate relief at least 2 out of 4 weeks during weeks 3 through 6 (weekly question) (non-constipation IBS; Study 2 / TARGET 2, 550 mg TID 14 d): 41% and 32% vs 41%; Responders: abdominal pain reduction of 1 point in weekly mean (non-constipation IBS; [6]): 52%; Responders: abdominal pain reduction of 2 point in median (non-constipation IBS; [6]): 41%; Responders: abdominal pain reduction of 3 point in mean (non-constipation IBS; [6]): 6% vs 7%; Responders: abdominal pain reduction of 3 point in median (non-constipation IBS; [6]): 21%; Responders: daily abdominal pain < 2 for at least 50% of days in a week (non-constipation IBS; [6]): 39%; Responders: overall reduction of mean weekly abdominal pain by >= 25% (non-constipation IBS; [6]): 58%; Responders: overall reduction of mean weekly abdominal pain by >= 50% (non-constipation IBS; [6]): 35%; Responders: overall reduction of mean weekly abdominal pain by >= 75% (non-constipation IBS; [6]): 14%; Responders: overall reduction of median weekly abdominal pain by >= 25% (non-constipation IBS; [6]): 62%; Responders: overall reduction of median weekly abdominal pain by >= 50% (non-constipation IBS; [6]): 44%; Abdominal Pain Responders: % (non-constipation IBS; [7]): 52%; Abdominal Pain Responders: n (non-constipation IBS; [7]): 165; Abdominal Pain and Stool Consistency Responders: % (non-constipation IBS; [7]): 47%; Abdominal Pain and Stool Consistency Responders: n (non-constipation IBS; [7]): 147; Adequate Relief of IBS Symptoms: % (non-constipation IBS; [7]): 41%; Adequate Relief of IBS Symptoms: n (non-constipation IBS; [7]): 128; Adequate Relief of IBS-Related Bloating: % (non-constipation IBS; [7]): 41%; Adequate Relief of IBS-Related Bloating: n (non-constipation IBS; [7]): 129; Stool Consistency Responders: % (non-constipation IBS; [7]): 74%; Stool Consistency Responders: n (non-constipation IBS; [7]): 233; Monthly responders for abdominal pain (≥30% decrease) and stool consistency (score <4) (non-constipation IBS; TARGET 2, ≥2 weeks in month following 2 weeks of treatment): 47%; % with decrease in stool frequency (SF) (non-constipation IBS; Week 1, 550 mg TID): 14.4%; % with decrease in stool frequency (SF) (non-constipation IBS; Week 2, 550 mg TID): 20.6%; % with decrease in stool frequency (SF) (non-constipation IBS; Week 3, 550 mg TID): 22.2%; % with decrease in stool frequency (SF) (non-constipation IBS; Week 4, 550 mg TID): 21.6%; % with decrease in stool frequency (SF) (non-constipation IBS; Week 5, 550 mg TID): 25.7%; % with decrease in stool frequency (SF) (non-constipation IBS; Week 6, 550 mg TID): 22.9%; % with decrease in stool frequency (SF) (non-constipation IBS; Week 7, 550 mg TID): 23.8%; % with decrease in stool frequency (SF) (non-constipation IBS; Week 8, 550 mg TID): 24.4%; % with decrease in stool frequency (SF) (non-constipation IBS; Week 9, 550 mg TID): 25.4%; % with decrease in stool frequency (SF) (non-constipation IBS; Week 10, 550 mg TID): 26.7%; % with decrease in stool frequency (SF) (non-constipation IBS; Week 11, 550 mg TID): 25.4%; % with decrease in stool frequency (SF) (non-constipation IBS; Week 12, 550 mg TID): 27.0%; Inhibition of cytochrome P450 2C19 (cytochrome P450 2C19): does not inhibit
